Source: patent US6306899A (priority 1999, dated 2001)
Values after ≈ are worked out from the molar mass of the structure shown. Where two headings read alike, the source gives them in different places.

Experiments:
[1] = background; in words; cited from earlier work
HBsAg in HepA2 cells = experiment: Suppression of HBsAg secretion in HepA2 cells, serum-free, 2 days; format: cell-based; settings: Homo sapiens, HepA2, 48 h, read-out: EC50 HepA2 (50% reduction of HBsAg secretion)
Description: (§1) Biological testing results of Helioxanthin and
(§2) its derivatives for suppression of HBsAg
(§3) in HepA2 and Hep3B cells in serum-free condition for 2 days
The symbol, "*" denotes HepA2, HBV DNA stable transfected HBV dimer DNA.
(§4) The symbol, "**" denotes EC50, the concentration of tested compounds
(§5) which exerted 50% reduction of HBsAg secretion in human hepatoma cells.

HBsAg in Hep3B cells = experiment: Suppression of HBsAg secretion in Hep3B cells, serum-free, 2 days; format: cell-based; settings: Homo sapiens, 48 h, read-out: EC50 Hep3B (50% reduction of HBsAg secretion)
Description: as §1, §2, §3, §4, §5

HBV [2] = settings: background; in words; cited from earlier work
Yellow Fever virus = experiment: microbe, parasite or virus in culture; format: cell-based
HBV [3] = experiment: microbe, parasite or virus in culture; format: cell-based, Hepatitis B virus; settings: for EC50: Hepatitis B virus, 144 h; for inhibition of HBV replication / DNA level: in words
[4] = Cytotoxicity, HepG2 cell growth; format: cell-based; settings: human, hepg2 cells; 3 days; read-out: Cytotoxicity (IC50) HepG2 cell
Protocol: (§6) To determine the cellular toxicity of the present compounds, the T-lymphoblastoic cell line (CEM) and the HEP-G2 cell line (parent cell line from which 2.2.15 cell line is produced) were used. Cells were subjected to varying concentrations of the drug(s) and cell numbers were determined 3 days post treatment by the method described by Chen, C-H and Cheng, Y-C, J. Biol. Chem., 264, 11934 (1989). Concentrations of the drug which would result in inhibition of cell growth were determined from the plot generated by representing cell numbers corresponding to the individual drug concentrations.

[5] = Solubility: saturated solution in PBS at room temperature; format: physicochemical; settings: aqueous buffer
Description: 3. The symbol "*" denotes the concentration of the saturated solution in
PBS at room temperature.

HBsAg = experiment: microbe, parasite or virus in culture; format: cell-based, Hepatitis B virus; settings: for EC50: Hepatitis B virus, 144 h, read-out: Anti-viral activity (ED50) HbsAg; for HbsAg expression inhibition: in words
[6] = Cytotoxicity, CEM cell growth; format: cell-based; settings: human, cem cells; 3 days; read-out: Cytotoxicity (IC50) CEM cell
Protocol: as §6

[7] = Yellow fever virus, BHK, 144 h, read-out: Anti-viral activity (ED50) YFV, plaque reduction, BHK cells, 6 days

| Compound | EC50 (HBsAg in HepA2 cells) [µM] | EC50 (HBsAg in Hep3B cells) [µM] | EC50 (Yellow Fever virus; [7]) [µM] | EC50 (HBV [3]) [µM] | CC50 at 72 h [4] [µM] | solubility [5] [µM] | EC50 (HBsAg) [µM] | CC50 at 72 h [6] [µM] | further results |
| --- | --- | --- | --- | --- | --- | --- | --- | --- | --- |
| Nc1ccn([C@H]2CC[C@@H](CO)O2)c(=O)n1 [2',3'-dideoxycytidine (ddC), 2',3'-dideoxycytidine] |  |  |  |  |  |  |  |  | toxicity [1]: high toxicity on the central and peripheral nervous system |
| COc1cc(-c2c3c(cc4cc(OC)c(O)cc24)C(=O)OC3)ccc1O [Dehydroconidendrin] | > 12.5 | > 12.5 |  |  |  |  |  |  |  |
| Nc1nc2c(ncn2CCC(CO)CO)c(=O)[nH]1 [PCV] |  |  |  |  |  |  |  |  | effect on HBV infection (HBV [2]): recurrence of HBV after a period of treatment |
| CC(=O)Oc1c2c(c(-c3ccc4c(c3)OCO4)c3cc4c(cc13)OCO4)C(=O)OC2 [Taiwanin E acetate] | > 12.5 | > 12.5 |  |  |  |  |  |  |  |
| O=C1OCc2c1cc1c(Br)cc3c(c1c2-c1cc2c(cc1Br)OCO2)OCO3 [ZHU-IX-143, 8,2'-dibromo-5,6-methylenedioxy-4-(4',5'-methylenedioxyphenyl)-3-hydroxymethylnapthalene-2-carboxylic acid lactone] |  |  | > 10 | > 10 | 20 | 11.9 (≈ 6.02 µg/mL) | > 10 | > 30 |  |
| Cc1cc2ccc3c(c2c(-c2ccc4c(c2)OCO4)c1C)OCO3 [ZHU-IX-163-2] |  |  | > 10 | > 10 | 17 | 18.4 (≈ 5.89 µg/mL) | > 10 |  |  |
| COc1cc(-c2c3c(cc4cc(OC)c(OC(C)=O)cc24)C(=O)OC3)ccc1OC(C)=O [Diacetate] | > 12.5 | > 12.5 |  |  |  |  |  |  |  |
| Cc1c(CO)cc2ccc3c(c2c1-c1ccc2c(c1)OCO2)OCO3 [ZHU-IX-122-1, 3-methyl-5,6-methylenedioxy-4-(3',4'-methylenedioxyphenyl)-2-hydroxymethylnapthalene] |  |  | > 10 | 5 | > 30 | 52.9 (≈ 17.8 µg/mL) | 10 | > 30 | inhibition of HBV replication / DNA level (HBV [3]): inhibit HBV replication; HbsAg expression inhibition (HBsAg): inhibit HBV replication and HbsAg expression |
| Cc1c(C=O)cc2ccc3c(c2c1-c1ccc2c(c1)OCO2)OCO3 [ZHU-IX-189, 5,6-methylenedioxy-4-(3',4'-methylendioxyphenyl)-2-methylnapthalene-3-aldehyde] |  |  | > 25 | > 10 |  |  | > 10 |  |  |
| Cc1c(C(=O)O)cc2ccc3c(c2c1-c1ccc2c(c1)OCO2)OCO3 [ZHU-X-10, sodium 5,6-methylenedioxy-4-(3',4'-methylenedioxyphenyl)-2-methylnapthalene-3-carbonate] |  |  |  |  |  |  |  |  | EC50 (Yellow Fever virus; read-out: Anti-viral activity (ED50) YFV, plaque reduction, BHK cells, 6 days, 8640 min): > 25 µM |
| O=C(O)c1cc2ccc3c(c2c(-c2ccc4c(c2)OCO4)c1CO)OCO3 [ZHU-IX-157, sodium 5,6-methylenedioxy-4-(3',4'-methylenedioxyphenyl)-3-hydroxymethylnapthalene-2-carbonate] |  |  | 8 | 2.5 | 26 | 255 | 10 | > 30 | activity against the Yellow fever virus (Yellow Fever virus; in words): demonstrated activity against the Yellow fever virus |
| O=C(O)c1c(CO)cc2ccc3c(c2c1-c1ccc2c(c1)OCO2)OCO3 [ZHU-IX-153, sodium 7,8-methylenedioxy-1-(3',4'-methylendioxyphenyl)-3-hydroxymethylnapthalene-2-carbonate] |  |  | > 10 | > 10 | > 30 | 255 | > 10 |  |  |
| COc1cc(C2c3cc(OC(C)=O)c(OC)cc3CC3C(=O)OCC32)ccc1OC(C)=O (centres unmarked) [Conidendrin Diacetate] | > 12.5 | > 12.5 |  |  |  |  |  |  |  |
| O=C1OCc2c1c(-c1ccc3c(c1)OCO3)c1cc3c(cc1c2O)OCO3 [Taiwanin E] | > 12.5 | > 12.5 |  |  |  |  |  |  |  |
| COc1cc2c(OC)c3c(c(-c4ccc5c(c4)OCO5)c2cc1OC)C(=O)OC3 [Justicidin A] | > 12.5 | > 12.5 |  |  |  |  |  |  |  |
| Cc1c(C(=O)O)cc2ccc3c(c2c1-c1ccc2c(c1)OCO2)OCO3 [ZHU-X-4] |  |  | > 20 | > 10 |  |  | > 10 |  |  |
| O=C1OCc2cc3cc4c(cc3c(-c3ccc5c(c3)OCO5)c21)OCO4 [Taiwanin C] | 1.25 | 1 |  |  |  |  |  |  |  |
| O=C1OC(=O)c2c1cc1cc3c(cc1c2-c1cc2c(cc1Br)OCO2)OCO3 [ZHU-IX-120-3, 6,7-methylenedioxy-1-(2'-bromo-4',5'-methylenedioxyphenyl)napthalene-2,3-dicarboxylic acid anhydride] |  |  | > 10 | > 10 | 11 | 11.8 (≈ 5.21 µg/mL) | > 10 | > 30 |  |
| O=C1OCc2cc3ccc4c(c3c(-c3ccc5c(c3)OCO5)c21)OCO4 [ZHU-IX-139-2, 7,8-methylendioxy-1-(3',4'-methylenedioxyphenyl)-3-hydroxymethylnapthalene-2-carboxylic acid lactone] |  |  | 16 | > 10 | 12 | 21 (≈ 7.31 µg/mL) | 10 | 18 |  |
| O=C1OC(=O)c2c1c(Br)c1cc3c(cc1c2-c1cc2c(cc1Br)OCO2)OCO3 [ZHU-IX-120-2, 1-bromo-6,7-methylenedioxy-4-(2'-bromo-4', 5'-methylenedioxyphenyl)napthalene-2,3-dicarboxylic acid anyhdride] |  |  | > 10 | > 10 | 6 | 13.1 (≈ 6.81 µg/mL) | > 10 | > 30 |  |
| OCc1cc2ccc3c(c2c(-c2ccc4c(c2)OCO4)c1CO)OCO3 [ZHU-IX-124-2, 2,3-dihydroxymethyl-5,6-methylenedioxy-4-(3',4'-methylenedioxyphenyl)napthalene] |  |  | > 10 | 10 | 16 | 127 (≈ 44.8 µg/mL) | 10 | > 30 |  |
| OCc1cc2c(Br)cc3c(c2c(-c2ccc4c(c2)OCO4)c1CO)OCO3 [ZHU-IX-135-1, 2,3-dihydroxymethyl-5-bromo-7,8-methylenedioxy-1-(3', 4'-methylenedioxyphenyl)napthalene] |  |  | 14 | 3 | 12 | 24.8 (≈ 10.7 µg/mL) | 8.5 | > 30 | inhibition of HBV replication / DNA level (HBV [3]): inhibit HBV replication; HbsAg expression inhibition (HBsAg): inhibit HBV replication and HbsAg expression |
| Cc1cc2ccc3c(c2c(-c2ccc4c(c2)OCO4)c1CO)OCO3 [ZHU-IX-159, 3-methyl-7,8-methylenedioxy-1-(3',4'-methylenedioxyphenyl)-2-hydroxymethylenaphtalene] |  |  | > 10 | > 10 | 16 | 24.4 (≈ 8.21 µg/mL) | 10 |  |  |
| COc1ccc(C2c3cc(OC)c(OC)cc3CC3C(=O)OCC32)cc1OC (centres unmarked) [Conidendrin Methyl Ether] | > 12.5 | > 12.5 |  |  |  |  |  |  |  |
| COc1cc(C2c3cc(O)c(OC)cc3CC3C(=O)OCC32)ccc1O (centres unmarked) [Conidendrin] | > 12.5 | > 12.5 |  |  |  |  |  |  |  |
| COc1cc2c(OC(C)=O)c3c(c(-c4ccc5c(c4)OCO5)c2cc1OC)C(=O)OC3 [Diphylline Acetate] | > 12.5 | > 12.5 |  |  |  |  |  |  |  |
| COc1cc2c(O)c3c(c(-c4ccc5c(c4)OCO5)c2cc1OC)C(=O)OC3 [Diphylline] | > 12.5 | > 12.5 |  |  |  |  |  |  |  |
| O=C1OC(=O)c2c1cc1c(Br)cc3c(c1c2-c1cc2c(cc1Br)OCO2)OCO3 [ZHU-IX-120-1, 5-bromo-7,8-methylenedioxy-1-(2'-bromo-4',5'-methylenedioxyphenyl)napthalene-2,3-dicarboxylic acid anhydride] |  |  | > 10 | > 10 | 6 | 13.8 (≈ 7.18 µg/mL) | > 10 | > 30 |  |
| Nc1ncnc2c1ncn2[C@@H]1O[C@H](COP(=O)(O)O)[C@@H](O)[C@@H]1O [ara-AMP] |  |  |  |  |  |  |  |  | toxicity [1]: extremely toxic; effect on HBV infection (HBV [2]): transiently suppress HBV infection |
